Among the data in the NIST ThermoML archive (doi:10.1021/acs.jced.9b00411) are Triple point temperature values, retold here.

For the series the following is noted: Crystal; DSC.

± gives the expanded uncertainty stated by the source.

For the molecule `Nc1ccc(S(N)(=O)=O)cc1` [4-aminobenzenesulfonamide], the Triple point temperature worked out at 437.78 ± 1.2 K.
